# Source: patent publication US4163011A, “Peptide compounds and compositions” (priority 1978, dated 1979)
# Peptide text beside a SMILES is read from it.
# Columns and labels:
# Type in all cases: in vivo
# adult female mice = assay: Compensatory Ovarian Hypertrophy (COH) after unilateral ovariectomy (Table I); conditions: for COH (± SE): sacrificed day 5, control 45.5 ± 5.3
# Experimental: A. Compensatory Ovarian Hypertrophy (COH) is an effect in standard laboratory (mammalian) animals for assessing antigonadotrophic activity by determining the increase in weight of the remaining gonad after unilateral gonadectomy. Procedures for COH measurement in female rats are described in Ramirez, V.D., et al., Endocrinology 95:475 (1974). According to these known procedures threonine-serine-lysine, prepared in Example 1, is administered intraperitoneally to adult female mice on the same day as a unilateral ovariectomy is performed. On day 5, both experimental and control animals are sacrificed and mean ovarian weights are obtained.
# Female Mice = assay: Compensatory ovarian hypertrophy in unilaterally ovariectomized mice (Table II); conditions: 5 days after treatment, control 29.7 ± 8.4
# Experimental: (§1) B. The effect of threonine-serine-lysine on serum concentrations of FSH in the […] is measured 24 hr after intraperitoneal injection of threonine-serine-lysine to unilaterally ovariectomized mice. On day 5 after injection, the animals were sacrificed and ovarian weights recorded There are then determined compensatory ovarian hypertrophy (5 days after treatment) as well as the serum FSH (24 hr after treatment).
# Serum FSH = Serum FSH in unilaterally ovariectomized mice (Table II); conditions: 24 hr after treatment, control 296.8 ± 375
# Experimental: as §1
# GnRH-induced rise in FSH = assay: Inhibition of GnRH-induced rise in FSH in the male rat (Table III); conditions: for Mean concentration of plasma FSH (± SE): GnRH-treated male rat
# Experimental: C. The antifertility effects of threonine-serine-lysine on the male rat are measured by their ability to inhibit GnRH-or gonadotropin releasing hormone-induced rise in FSH when threonine-serine-lysine is administered intravenously. In this test, both control and tripeptide-treated animals received GnRH in a phosphate buffered saline solution, followed by the administration of the tripeptide in the same buffer.
structure (smiles),measurement,setting,value
C[C@@H](O)[C@H](N)C(=O)N[C@@H](CO)C(=O)N[C@@H](CCCCN)C(=O)O [threonine-serine-lysine] (H-Thr-Ser-Lys-OH),COH (± SE),adult female mice; dose 186.1 ng intraperitoneally on day of unilateral ovariectomy,34.6 ± 6.8%
same,COH (± SE),adult female mice; dose 372.2 ng intraperitoneally on day of unilateral ovariectomy,11.1 ± 15.1%
same,"Compensatory ovarian hypertrophy, result in words","adult female mice; intraperitoneal, Table I doses",reduced in a dose-dependent manner
same,COH (± SE),Female Mice; dose 35.1 ng intraperitoneal,12.6 ± 10.9%
same,COH (± SE),Female Mice; dose 70.3 ng intraperitoneal,21.9 ± 8.0%
same,COH (± SE),Female Mice; dose 175.7 ng intraperitoneal,12.9 ± 5.0%
same,COH (± SE),Female Mice; dose 351.7 ng intraperitoneal,21.1 ± 7.8%
same,Serum FSH (± SE),Serum FSH; dose 35.1 ng intraperitoneal,254.4 ± 88.7 ng/mL
same,Serum FSH (± SE),Serum FSH; dose 70.3 ng intraperitoneal,377.0 ± 56.9 ng/mL
same,Serum FSH (± SE),Serum FSH; dose 175.7 ng intraperitoneal,165.0 ± 22.5 ng/mL
same,Serum FSH (± SE),Serum FSH; dose 351.7 ng intraperitoneal,179.0 ± 60.9 ng/mL
same,Mean concentration of plasma FSH (± SE),"GnRH-induced rise in FSH; dose 1.48 ng intravenously, 0 min, control 362.5 ± 20.7",302.2 ± 26.2 ng/mL
same,Mean concentration of plasma FSH (± SE),"GnRH-induced rise in FSH; dose 1.48 ng intravenously, 15 min, control 1753.4 ± 450.6",338.4 ± 38.8 ng/mL
same,Mean concentration of plasma FSH (± SE),"GnRH-induced rise in FSH; dose 1.48 ng intravenously, 30 min, control 1701.6 ± 720.6",592.5 ± 217.6 ng/mL
same,Mean concentration of plasma FSH (± SE),"GnRH-induced rise in FSH; dose 1.48 ng intravenously, 60 min, control 247.8 ± 14.0",586.5 ± 301.3 ng/mL
same,Mean concentration of plasma FSH (± SE),"GnRH-induced rise in FSH; dose 14.8 ng intravenously, 0 min, control 362.5 ± 20.7",45.6 ± 52.3 ng/mL
same,Mean concentration of plasma FSH (± SE),"GnRH-induced rise in FSH; dose 14.8 ng intravenously, 15 min, control 1753.4 ± 450.6",402.9 ± 117.7 ng/mL
same,Mean concentration of plasma FSH (± SE),"GnRH-induced rise in FSH; dose 14.8 ng intravenously, 30 min, control 1701.6 ± 720.6",472.7 ± 76.9 ng/mL
same,Mean concentration of plasma FSH (± SE),"GnRH-induced rise in FSH; dose 14.8 ng intravenously, 60 min, control 247.8 ± 14.0",684.5 ± 142.0 ng/mL
same,Mean concentration of plasma FSH (± SE),"GnRH-induced rise in FSH; dose 148 ng intravenously, 0 min, control 362.5 ± 20.7",43.9 ± 85.6 ng/mL
same,Mean concentration of plasma FSH (± SE),"GnRH-induced rise in FSH; dose 148 ng intravenously, 15 min, control 1753.4 ± 450.6",646.1 ± 198.0 ng/mL
same,Mean concentration of plasma FSH (± SE),"GnRH-induced rise in FSH; dose 148 ng intravenously, 30 min, control 1701.6 ± 720.6",1407.8 ± 499.6 ng/mL
same,Mean concentration of plasma FSH (± SE),"GnRH-induced rise in FSH; dose 148 ng intravenously, 60 min, control 247.8 ± 14.0",1279.6 ± 180.8 ng/mL
same,"GnRH-induced rise in FSH, result in words","GnRH-induced rise in FSH; intravenous, male rat, Table III doses",FSH suppression
